Data reported in publication PMC11672299, “Conjugation of Polycationic Peptides Extends the Efficacy Spectrum of β‐Lactam Antibiotics” (Advanced Science, 2024).

What was measured:
Type in all cases: cell-based
E. coli ATCC 25 922 (–) = experiment: microbe, parasite or virus in culture; conditions: Escherichia coli, 20 h; E. coli ATCC 25922 (no β‐lactamase); combinations: avibactam fixed 4 mg L^−1, clavulanic acid 2 mg L^−1; median (n = 3)
Method in brief: (§1)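 Twofold dilutions in cation-adjusted MHB II, inoculum 5 × 10^5 CFU mL^−1. Combination tests used clavulanic acid at 2 mg L^−1 or avibactam at 4 mg L^−1, fixed per EUCAST.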

[1] = tested on: C. freundii Tü21‐052 (clinical isolate); experiment: microbe, parasite or virus in culture; conditions: Citrobacter freundii; C. freundii Tü21‐052; median (n = 3); read-out: MIC
Method in brief: as §1

[2] = tested on: A. baumannii SC300007 (Oxa23); experiment: microbe, parasite or virus in culture; conditions: Acinetobacter baumannii, 20 h, combinations: avibactam fixed 4 mg L^−1, clavulanic acid 2 mg L^−1, median (n = 3)
Method in brief: as §1

[3] = tested on: S. aureus LAC* lux USA300 (MRSA); experiment: MIC by broth microdilution; conditions: Staphylococcus aureus
Experimental: (§2) The minimum inhibitory concentration (MIC) of the β‐lactam–peptide conjugates was determined by broth microdilution as previously described.^[ [17] ^] Briefly, in cation‐adjusted MHB II medium, a twofold serial dilution of the compounds was prepared in 96‐well round‐bottom polystyrene or polypropylene microtiter plates with each well containing 50 µL. The plates were inoculated with 50 µL bacterial suspension and the final inoculum, in a total volume of 100 µL, contained 5 × 10^5 CFU mL^−1. The microplates were incubated for 20 h at 37 ± 1 °C. The lowest concentration preventing visible bacterial growth was considered the MIC value. For susceptibility testing of combinations of β‐lactamase‐inhibitors with either a β‐lactam antibiotic or a β‐lactam–peptide conjugate, fixed concentrations of the inhibitors according to the EUCAST (European Committee on Antimicrobial Susceptibility Testing) guidelines (clavulanic acid = 2 mg L^−1, avibactam = 4 mg L^−1) were used.

[4] = tested on: CTZ‐resistant A. baumannii (n = 4)
Experimental: as §2

[5] = tested on: CTZ‐resistant C. freundii (n = 3); conditions: 20 h
Experimental: as §2

A. bohemicus DSM 100419 = experiment: MIC by broth microdilution; conditions: median (n = 3)
Experimental: as §2

Gram‐negative bacteria = experiment: MIC compared with parent β‐lactam
Experimental: as §2

E. faecalis (vanB) = experiment: MIC compared with parent β‐lactam; conditions: on a molar level
Experimental: as §2

[6] = tested on: Enterobacteriaceae (CTZ‐resistant); experiment: MIC compared with parent β‐lactam
Experimental: as §2

Gram‐positive bacteria = experiment: MIC compared with parent β‐lactam
Experimental: as §2

SMILES: CC(C)(O/N=C(\C(=O)N[C@@H]1C(=O)N2C(C(=O)[O-])=C(C[n+]3ccccc3)CS[C@H]12)c1csc(N)n1)C(=O)O [CTZ, ceftazidime, reference compound]
- MIC (E. coli ATCC 25 922 (–)): 0.25 µg/mL
- MIC [1]: 0.25 µg/mL
- MIC [2]: > 64 µg/mL
- MIC [3]: 16 µg/mL

SMILES: CC(C)(O/N=C(\C(=O)N[C@@H]1C(=O)N2C(C(=O)[O-])=C(C[n+]3ccccc3)CS[C@H]12)c1csc(N)n1)C(=O)NCCCCCCN1C(=O)CC(SC[C@H](NC(=O)[C@H](CCCNC(=N)N)NC(=O)[C@H](CCCNC(=N)N)NC(=O)[C@H](CCCNC(=N)N)NC(=O)[C@H](CCCNC(=N)N)NC(=O)[C@H](CCCNC(=N)N)NC(=O)[C@@H](N)CCCNC(=N)N)C(N)=O)C1=O (stereo partly drawn) [CTZ-R6]
- MIC range ([4]; CTZ‐resistant (n = 4, 20 h)): 4 to 16 µg/mL
- increase in antimicrobial activity versus CTZ ([4]; CTZ‐resistant A. baumannii): ~16 fold
- MIC range [5]: 0.5 to 64 µg/mL
- antimicrobial activity (rank among CTZ–peptide conjugates) (A. bohemicus DSM 100419): most potent conjugates
- increase in antimicrobial activity versus CTZ (factor) (Gram‐negative bacteria): 2–32
- increase in antimicrobial activity versus CTZ (E. faecalis (vanB)): ~300 fold
- increase in antimicrobial activity versus CTZ [6]: ca. fourfold
- increase in antimicrobial activity versus CTZ (factor) (Gram‐positive bacteria): ≈ 1000
